# From patent US10548317B2, “Pesticidally active pyrazole derivatives” (SYNGENTA PARTICIPATIONS AG, priority 2015, dated 2020)
# Columns and labels:
# Diabrotica balteata = Diabrotica balteata (corn root worm) maize sprout test; format: in vivo; conditions: 96 h, application rate of 200 ppm, maize sprouts, L2 larvae, 4 days after infestation, read-out: effect in at least one of the two categories (mortality or growth inhibition)
# Description: Diabrotica balteata, (Corn Root Worm)
# Maize sprouts, placed on an agar layer in 24-well microtiter plates were treated with aqueous test solutions prepared from 10'000 ppm DMSO stock solutions by spraying. After drying, the plates were infested with L2 larvae (6 to 10 per well). The samples were assessed for mortality and growth inhibition in comparison to untreated samples 4 days after infestation. The following compounds gave an effect of at least 80% in at least one of the two categories (mortality or growth inhibition) at an application rate of 200 ppm: 1, 3, 4, 5, 6, 7, 8, 9, 10, 11, 12, 14, 15, 16, 17, 18, 19, 20, 21, 22, 23, 24, 25, 26, 27, 28, 29, 30, 31, 32, 33, 35, 36, 37, 38, 39, 40, 41, 42, 43, 44, 45, 48, 50, 51, 52, 53, 54 and 55.
# Spodoptera littoralis = Spodoptera littoralis (Egyptian cotton leaf worm) leaf disc spray test; format: in vivo; conditions: foliar, 72 h, application rate of 200 ppm, cotton leaf discs, L1 larvae, 3 days after infestation, read-out: control (at least one of mortality, anti-feedant effect, growth inhibition)
# Description: Spodoptera littoralis (Egyptian Cotton Leaf Worm)
# Cotton leaf discs were placed on agar in 24-well microtiter plates and sprayed with aqueous test solutions prepared from 10'000 ppm DMSO stock solutions. After drying the leaf discs were infested with five L1 larvae. The samples were assessed for mortality, anti-feedant effect, and growth inhibition in comparison to untreated samples 3 days after infestation. Control of Spodoptera littoralis by a test sample is when at least one of mortality, anti-feedant effect, and growth inhibition is higher than the untreated sample.
# Euschistus heros = Euschistus heros (neotropical brown stink bug) soybean leaf test; format: in vivo; conditions: 120 h, application rate of 200 ppm, soybean leaves, N2 nymphs, 5 days after infestation, read-out: effect in at least one of the two categories (mortality or growth inhibition)
# Description: Euschistus heros (Neotropical Brown Stink Bug)
# Soybean leaves on agar in 24-well microtiter plates were sprayed with aqueous test solutions prepared from 10'000 ppm DMSO stock solutions. After drying the leaves were infested with N2 nymphs. The samples were assessed for mortality and growth inhibition in comparison to untreated samples 5 days after infestation. The following compounds gave an effect of at least 80% in at least one of the two categories (mortality or growth inhibition) at an application rate of 200 ppm: 3, 4, 5, 6, 9, 10, 12, 14, 15, 16, 17, 18, 20, 24, 27, 28, 29, 31, 32, 33, 36, 37, 38, 42, 43, 45, 50, 52, 53, 54 and 55.
# Thrips tabaci = Thrips tabaci (onion thrips) sunflower leaf disc test; format: in vivo; conditions: foliar, 144 h, application rate of 200 ppm, sunflower leaf discs, mixed ages, 6 days after infestation
# Description: Thrips tabaci (Onion thrips):
# (§1) Sunflower leaf discs were placed on agar in 24-well microtiter plates and sprayed with aqueous test solutions prepared from 10'000 ppm DMSO stock solutions. After drying the leaf discs were infested with a thrips population of mixed ages. The samples were assessed for mortality 6 days after infestation.
# Plutella xylostella = Plutella xylostella (diamond back moth) artificial diet test; format: in vivo; conditions: 120 h, application rate of 200 ppm, L2 larvae, 5 days after infestation, read-out: effect in at least one of the two categories (mortality or growth inhibition)
# Description: Plutella xylostella (Diamond Back Moth):
# 24-well microtiter plates with artificial diet were treated with aqueous test solutions prepared from 10'000 ppm DMSO stock solutions by pipetting. After drying, the plates were infested with L2 larvae (10 to 15 per well). The samples were assessed for mortality and growth inhibition in comparison to untreated samples 5 days after infestation. The following compounds gave an effect of at least 80% in at least one of the two categories (mortality or growth inhibition) at an application rate of 200 ppm: 1, 2, 3, 4, 5, 6, 7, 8, 9, 10, 11, 12, 13, 14, 15, 16, 17, 18, 19, 20, 21, 22, 23, 24, 25, 26, 27, 28, 29, 30, 31, 32, 33, 35, 36, 37, 38, 39, 40, 41, 42, 43, 44, 45, 46, 47, 48, 50, 51, 52, 53, 54 and 55.
# Tetranychus urticae = Tetranychus urticae (two-spotted spider mite) bean leaf disc test; format: in vivo; conditions: foliar, 192 h, application rate of 200 ppm, bean leaf discs, mixed population (mobile stages), 8 days after infestation
# Description: Tetranychus urticae (Two-Spotted Spider Mite):
# as §1, with “Bean” for “Sunflower”, “discs” for “discs were placed”, “were” for “and”, “mite” for “thrips”, “on mixed population (mobile stages) 8” for “6”
Structure (SMILES),melting point [°C],percent effect (mortality or growth inhibition) at 200 ppm (Diabrotica balteata) [%],"control (mortality, anti-feedant effect or growth inhibition) at 200 ppm (Spodoptera littoralis) [%]",percent effect (mortality or growth inhibition) at 200 ppm (Euschistus heros) [%],mortality at 200 ppm (Thrips tabaci) [%],percent effect (mortality or growth inhibition) at 200 ppm (Plutella xylostella) [%],mortality at 200 ppm (Tetranychus urticae) [%]
Cn1nc(C(F)(F)C(F)(F)F)c(C(F)(F)F)c1-n1cc(-c2cc(C(=O)NC3CC3)no2)cn1 [Compound 66],181 to 183,,,,,,
COc1sc(-c2cnn(-c3c(C(F)(F)F)c(C(F)(F)C(F)(F)F)nn3C)c2)cc1C(=O)NC1CC1 [Compound 56],152 to 153,,,,,,
Cn1nc(C(F)(F)C(F)(F)F)c(C(F)(F)F)c1-n1cc(-c2cc(C(=O)NC3CC3)c(Br)s2)cn1 [Compound 57],192 to 193,,,,,,
Cn1nc(C(F)(F)C(F)(F)F)c(C(F)(F)F)c1-n1cc(-n2cnc(C(=O)NC3CC3)c2)cn1 [Compound 49],190 to 191,,,,,,
Cn1nc(C(F)(F)C(F)(F)F)c(C(F)(F)F)c1-n1cc(-c2cnc(C(=O)NC3CC3)s2)cn1 [Compound 65],132 to 133,,,,,,
Cn1nc(C(F)(F)C(F)(F)F)c(C(F)(F)F)c1-n1cc(-c2cnc(C(=O)NC3(C#N)CC3)s2)cn1 [Compound 64],158 to 159,,,,,,
Cn1nc(C(F)(F)C(F)(F)F)c(C(F)(F)F)c1-n1cc(-n2cc(C(=O)NC3CC3)nn2)cn1 [Compound 68],242 to 244,,,,,,
"Cn1nc(C(F)(F)C(F)(F)F)c(C(F)(F)F)c1-n1cc(-c2cc(C(=O)NC3CC3)c(Cl)s2)cn1 [Compound 3, 2-chloro-N-cyclopropyl-5-[1-[2-methyl-5-(1,1,2,2,2-pentafluoroethyl)-4-(trifluoromethyl)pyrazol-3-yl]pyrazol-4-yl]thiophene-3-carboxamide]",,≥ 80,≥ 80,≥ 80,≥ 80,≥ 80,≥ 80
"Cn1nc(C(F)(F)C(F)(F)F)c(C(F)(F)F)c1-n1cc(-c2cc(C(=O)NC3(C(N)=S)CC3)c(Cl)s2)cn1 [Compound 6, N-(1-carbamothioylcyclopropyl)-2-chloro-5-[1-[2-methyl-5-(1,1,2,2,2-pentafluoroethyl)-4-(trifluoromethyl)pyrazol-3-yl]pyrazol-4-yl]thiophene-3-carboxamide]",,≥ 80,≥ 80,≥ 80,≥ 80,≥ 80,≥ 80
Cn1nc(C(F)(F)C(F)(F)F)c(C(F)(F)F)c1-n1cc(-c2cc(C(=O)NC3CC3)sn2)cn1 [Compound 63],146 to 148,,,,,,
Cn1nc(C(F)(F)C(F)(F)F)c(C(F)(F)F)c1-n1cc(-n2cnc(C(=O)NC3(C#N)CC3)c2)cn1 [Compound 62],195 to 197,,,,,,
Cc1sc(-c2cnn(-c3c(C(F)(F)F)c(C(F)(F)C(F)(F)F)nn3C)c2)cc1C(=O)NC1(C#N)CC1 [Compound 42],,≥ 80,≥ 80,≥ 80,≥ 80,≥ 80,≥ 80
Cn1nc(C(F)(F)C(F)(F)F)c(C(F)(F)F)c1-n1cc(-c2cc(C(=O)NC3CC3)c(C#N)s2)cn1 [Compound 59],171 to 172,,,,,,
"Cn1nc(C(F)(F)C(F)(F)F)c(C(F)(F)F)c1-n1cc(-c2cc(C(=O)NC3(C#N)CC3)c(Cl)s2)cn1 [Compound 4, 2-chloro-N-(1-cyanocyclopropyl)-5-[1-[2-methyl-5-(1,1,2,2,2-pentafluoroethyl)-4-(trifluoromethyl)pyrazol-3-yl]pyrazol-4-yl]thiophene-3-carboxamide]",,≥ 80,≥ 80,≥ 80,≥ 80,≥ 80,≥ 80
Cc1sc(-c2cnn(-c3c(C(F)(F)F)c(C(F)(F)C(F)(F)F)nn3C)c2)cc1C(=O)NC1CC1 [Compound 43],,≥ 80,≥ 80,≥ 80,≥ 80,≥ 80,≥ 80
Cn1nc(C(F)(F)C(F)(F)F)c(C(F)(F)F)c1-n1cc(-c2cc(C(=O)N[C@H]3C[C@@H]3C(F)(F)F)c(Cl)s2)cn1 [Compound 33],,≥ 80,≥ 80,≥ 80,≥ 80,≥ 80,≥ 80
Cn1nc(C(F)(F)C(F)(F)F)c(C(F)(F)F)c1-n1cc(-n2cc(C(=O)NC3(C#N)CC3)nn2)cn1 [Compound 67],> 250,,,,,,
Cn1nc(C(F)(F)C(F)(F)F)c(C(F)(F)F)c1-n1cc(-c2cc(C(=O)NC3(C#N)CC3)c(Br)s2)cn1 [Compound 61],184 to 185,,,,,,
C=CCNC(=O)c1cc(-c2cnn(-c3c(C(F)(F)F)c(C(F)(F)C(F)(F)F)nn3C)c2)sc1Cl [Compound 29],,≥ 80,≥ 80,≥ 80,≥ 80,≥ 80,≥ 80
Cn1nc(C(F)(F)C(F)(F)F)c(OC(F)F)c1-n1cc(-c2cc(C(=O)NC3(C#N)CC3)c(Cl)s2)cn1 [Compound 38],,≥ 80,≥ 80,≥ 80,≥ 80,≥ 80,≥ 80
Cn1nc(C(F)(F)C(F)(F)F)c(C(F)(F)F)c1-n1cc(-c2cc(C(=O)NCC3CC3)c(Cl)s2)cn1 [Compound 27],,≥ 80,≥ 80,≥ 80,≥ 80,≥ 80,≥ 80
Cn1nc(C(F)(F)C(F)(F)F)c(C(F)(F)F)c1-n1cc(-n2cc(C(=O)NC3CC3)c(C(F)(F)F)n2)cn1 [Compound 12],,≥ 80,≥ 80,≥ 80,≥ 80,≥ 80,≥ 80
